# In patent KR20200058863A, “루테인 장용성 고체분산체를 유효성분으로 함유하는 위산보호용 조성물 및 이를 포함하는 경구용 제제” (중앙대학교 산학협력단, priority 2018, dated 2020):
# Read-outs that look alike come from different tables or passages of the source.
# What was measured:
# physchem [1] = details: artificial gastric fluid, pH 1.2
# [2] = In vitro dissolution in artificial gastric/intestinal fluid and successive pH (USP 29 apparatus 2); assay type: physicochemical; details: artificial gastric fluid pH 1.2, 120 min
# physchem [3] = details: ph 1.2 solution
# [4] = intestinal fluid, pH 6.8; spectra over 24 h
# [5] = intestinal condition pH 6.8, 37 ± 0.5 ℃, 100 rpm
# physchem [6] = details: artificial gastric fluid, pH 1.2; remark: listed apart in the source
# [7] = PXRD crystallinity of lutein and solid dispersions; assay type: physicochemical; details: 2θ 5° to 50°, room temperature
smiles,measurement,setting,value
CC1=C[C@H](O)CC(C)(C)[C@H]1/C=C/C(C)=C/C=C/C(C)=C/C=C/C=C(C)/C=C/C=C(C)/C=C/C1=C(C)C[C@@H](O)CC1(C)C [루테인],degraded at 2 h,physchem [1],70%
same,lutein content,"pH 1.2, 0 h",10.31 ± 0.29 mg
same,lutein ratio,"pH 1.2, 0 h",100%
same,lutein content,"pH 1.2, after 12 h",1.51 ± 0.03 mg
same,acid resistance,"[2]; 37 ± 0.5 ℃, 100 rpm",산저항성을 나타내었으며
same,lutein detected in dissolution medium,[2]; low solubility,검출되지 않았다
same,remaining at 12 h,physchem [3],14.7%
same,change of lutein absorbance spectrum,[4],유의한 변화가 확인되지 않았다
same,change of lutein,[5],루테인 변화가 나타나지 않았다
same,degraded at 24 h,physchem [6],~50%
same,crystallinity (PXRD peaks),[7],다양한 특유의 피크를 갖는 고도의 결정구조
